Source: patent publication US20030181507A1, “Use of 3-substituted oxindole derivatives as kcnq potassium channel modulators” (priority 2000, published 2003)

Assays:
KCNQ4 [1] = biological target: T1, KCNQ4 (Homo sapiens, UniProt P56696); test: Membrane potential in current clamp mode, KCNQ4 expressing cell; assay type: cell-based; details: FIG. 3; for membrane potential after addition of compound: 10 μM in bath solution, whole cell, initial resting potential around −60 mV, sequential additions to same cell
T1 construct: expressed in transfected cells; host or cells: HEK-293
Description: (§1) KCNQ4 and KCNQ5 was sub-cloned into the mammalian expression vector pNS1n (NeuroSearch), a custom-designed derivative of pcDNA3Neo (InVitrogen). HEK-293 cells (American Type Culture Collection) were grown in DMEM (Life Technologies) supplemented with 10% FCS (Life Technologies) at 37° C. in 5% CO2.
(§2) One day prior to transfection, 10^6 cells were plated in a cell culture T25 flask (Nunc). Cells were transfected with 2.5 μg of the plasmid pNS1n_KCNQ4 or with 2.5 μg of the plasmid pNS1n_KCNQ5 using Lipofectamine (Life Technologies) according to the manufacturer's instructions. Cells transfected with pNS1n_KCNQ4 or pNS1n_KCNQ5 were selected in media supplemented with 0.5 mg/ml geneticin (G418; Life Technologies).
(§3) Single clones were picked and propagated in selection media for five passages after which they were considered stable. Following the cells were cultured in regular medium without selection agent.
Expression of functional KCNQ4 channels or KCNQ5 channels was verified by patch-clamp measurements.
Transfected cells were cultured on glass cover slips (Ø=3 mm), which were transferred to a small recording chamber. The chamber was perfused with extracellular solutions at a rate of 1 ml/min giving rise to full exchange of the chamber volume (15 μl) each second.
Whole-cell currents were recorded using a HEKA EPC-9 amplifier and borosilicate glass micropipettes with tip resistances of 1.5-3 MΩ. Series resistances were below 5 MΩ, mostly stayed constant during the experiment and were compensated by 70%. The currents were not leak-subtracted.
All experiments were performed at room temperature (21-25° C.). Igor software (WaveMetrics, Lake Oswego, Oreg.) was used for the analysis.
The bath solution consisted of 144 mM NaCl, 4 mM KCl, 2 mM CaCl2, 1 mM MgCl2 and 10 mM HEPES (pH adjusted to 7.4). The pipette solution consisted of 144 mM KCl, 5.4 mM CaCl2, 1.8 mM MgCl2, 4 mM NaATP, 0.4 mM GTP, 10 mM EGTA and 10 mM HEPES (pH adjusted to 7.2).
The membrane potential was measured in current clamp mode using the whole cell configuration of the patch clamp technique. A resting membrane potential of around −60 mV was initially recorded from this cell and the addition of 10 μM Compound 1 to the bath solution induced a hyper-polarisation of the membrane potential to −83 mV.
After washout of Compound 1, the membrane potential returned to −69 mV, and subsequent addition of 10 μM Retigabine, a KCNQ activator, induced a faster but smaller hyperpolarisation to a membrane potential of −76 mV.
The compounds were present in the bath solution during the times indicated by the bars.

KCNQ5 = biological target: T2, KCNQ5 (Homo sapiens, UniProt Q9NR82); test: Whole-cell voltage clamp of KCNQ5 stably expressed in HEK-293 cells; assay type: cell-based; details: 10 μM, holding −90 mV, step to −30 mV
T2 construct: expressed in transfected cells; host or cells: HEK-293
Description: as §1, §2, §3
Expression of functional KCNQ4 channels or KCNQ5 channels was verified by patch-clamp measurements. […]
(§4) Whole-cell currents were recorded using a HEKA EPC-9 amplifier and borosilicate glass micropipettes with tip resistances of 1.5-3 MΩ. […]
The currents were measured from a cell patch clamped in the whole-cell voltage clamp configuration. […]
The currents recorded in the absence (control) and in the presence of 10 μM of the reference M current blocker XE-991 is shown in the panel to the left.

KCNQ4 [2] = biological target: T1, KCNQ4; test: Whole-cell voltage clamp of KCNQ4 stably expressed in HEK-293 cells; assay type: cell-based
Description: as §1, §2
Single clones were picked and propagated in selection media for five passages after which they were considered stable. Following the cells were cultured in regular medium without selection agent. […]
as §4
The currents were measured in voltage mode using the whole-cell configuration of the patch clamp technique. […]
The experimental conditions was as described above, but in this experiment the depolarising potential ranged from −120 mV to +40 mV before a step back to −120 mV where brief inward tail currents were recorded. […]

BK channels = BK channels (Homo sapiens, UniProt Q12791); details: background statement; cited from earlier work
KCNQ channels = details: background statement; cited from earlier work

Chain of BK channels (Q12791 whole entry): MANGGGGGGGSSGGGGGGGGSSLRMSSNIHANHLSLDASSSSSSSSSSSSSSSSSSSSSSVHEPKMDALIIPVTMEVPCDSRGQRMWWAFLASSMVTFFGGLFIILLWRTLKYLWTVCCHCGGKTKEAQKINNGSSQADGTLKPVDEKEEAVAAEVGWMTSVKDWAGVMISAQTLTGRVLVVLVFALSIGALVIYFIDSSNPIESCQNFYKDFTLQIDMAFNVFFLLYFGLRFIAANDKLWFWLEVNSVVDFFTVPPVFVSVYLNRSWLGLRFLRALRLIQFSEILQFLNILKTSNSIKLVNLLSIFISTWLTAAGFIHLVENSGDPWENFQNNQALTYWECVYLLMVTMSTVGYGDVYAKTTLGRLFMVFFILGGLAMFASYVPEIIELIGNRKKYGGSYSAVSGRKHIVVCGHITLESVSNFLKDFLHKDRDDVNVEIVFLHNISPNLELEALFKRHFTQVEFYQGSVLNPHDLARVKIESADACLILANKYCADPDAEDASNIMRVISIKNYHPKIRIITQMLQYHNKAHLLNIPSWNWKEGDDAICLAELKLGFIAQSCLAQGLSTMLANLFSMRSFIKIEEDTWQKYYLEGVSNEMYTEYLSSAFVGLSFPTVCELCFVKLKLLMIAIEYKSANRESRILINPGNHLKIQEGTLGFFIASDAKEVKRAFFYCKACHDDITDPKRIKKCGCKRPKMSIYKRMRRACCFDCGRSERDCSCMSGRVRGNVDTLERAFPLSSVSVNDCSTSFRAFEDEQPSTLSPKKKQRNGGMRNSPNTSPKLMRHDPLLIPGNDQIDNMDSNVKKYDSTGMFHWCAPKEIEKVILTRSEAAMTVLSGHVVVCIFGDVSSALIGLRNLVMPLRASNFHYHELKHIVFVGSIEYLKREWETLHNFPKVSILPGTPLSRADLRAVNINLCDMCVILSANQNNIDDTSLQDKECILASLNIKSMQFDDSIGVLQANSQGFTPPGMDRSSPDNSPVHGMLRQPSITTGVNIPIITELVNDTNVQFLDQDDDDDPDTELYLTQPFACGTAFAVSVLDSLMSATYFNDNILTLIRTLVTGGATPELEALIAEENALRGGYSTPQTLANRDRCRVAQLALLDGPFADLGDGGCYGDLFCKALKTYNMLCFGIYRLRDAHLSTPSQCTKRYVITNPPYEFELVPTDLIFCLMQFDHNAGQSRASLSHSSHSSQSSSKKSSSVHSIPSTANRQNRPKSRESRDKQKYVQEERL

COc1ccc(Cl)cc1C1(F)C(=O)Nc2cc(C(F)(F)F)ccc21 (racemic) [Compound 1, (±)-3-(5-chloro-2-methoxyphenyl)-1,3-dihydro-3-fluoro-6-(trifluoromethyl)-2H-indol-2-one]
membrane potential after addition of compound (KCNQ4 [1]): −83 mV | membrane potential after washout of compound (KCNQ4 [1]; after washout of 10 μM compound): −69 mV | effect on KCNQ5 currents (KCNQ5; after washout of XE-991, FIG. 4): activation | changes in IV relation and activation curve (KCNQ4 [2]; 3 μM, depolarising potential −120 mV to +40 mV, FIG. 2): changes in IV relation and activation curve | activation of KCNQ4 currents (KCNQ4 [2]; 0.1, 0.3, 1, 3 and 10 μM, holding −90 mV, step to −40 mV, HEK-293 cells, FIG. 1): dose-dependent activation

O=C1N(c2ccccc2)c2ccccc2C1(Cc1ccncc1)Cc1ccncc1 [Linopiridine]
effect on BK channels (BK channels): no effect | effect on KCNQ channels (KCNQ channels): potent KCNQ inhibiting compounds

O=C1c2ccccc2C(Cc2ccncc2)(Cc2ccncc2)c2ccccc21 [XE-991]
effect on BK channels (BK channels): no effect | membrane potential after addition of compound (KCNQ4 [1]): −12 mV | return of membrane potential upon washout (KCNQ4 [1]; after 10 μM compound): returned very slowly towards the control level | reversibility of inhibition of KCNQ5 currents (KCNQ5; FIG. 4): not fully reversible | effect on KCNQ channels (KCNQ channels): potent KCNQ inhibiting compounds
